Assay results as given in patent publication US20260262641A1 (priority 2023, published 2026).

Assays:
[1] = system: ground pearl (Margarodes spp); experiment: Field trial in kikuyu turf, control of ground pearl, Robina (Example 6); format: in vivo; settings: 56 DAA3 (head); 0=dead; 10=best quality/color; product rate mL/ha: Meridian 1200, Kohinor 350 SC 1500, Fenpyroximate 50 SC 4000; each with Stamina B 20000
[2] = system: ground pearl (Margarodes spp); experiment: as above; format: in vivo
Protocol: A field trial was conducted in kikuyu turf, to evaluate fenpyroximate for control of ground pearl (Margarodes spp). The trial was located at Robina, Queensland (−28.069442, 153.401817), in an area with a known infestation of ground pearl.
All treatments were applied using a hand boom fitted with XC08 nozzles, in a spray volume of 443 L/ha.
The ground pearl density by species was assessed prior to the first application and again 21 days after the third application by sampling 20 cores per plot and recording the number of eggs and adults. Turf vigor was assessed on a 0 to 10 rating scale (0=dead; 10=best quality/color) prior to the first application and 42 days after the third application.
(§1) All data was statistically analyzed using analysis of variance and Fisher's protected least significant different test (Fishers LSD). The level of significance for all tests was P<0.05.

[3] = system: redlegged earth mite (H. destructor; RLEM); experiment: whole plant or invertebrate
Protocol: On the 14th of May 2022, H. destructor were collected from capeweed (Arctotheca calendula) in South Morang, Victoria (−37.625, 145.110), a site with no known history of insecticide application. Mites were collected via suction using a Stihl SH55 blower vacuum, placed in plastic containers with paper towel and vegetation, and transported back to the laboratory, where they were stored at 4° C. until testing.
Serial dilutions were prepared for each insecticide (Table 1), with the addition of a non-ionic surfactant (Tween 20) at 0.01% to aid the spread of the insecticide and ensure even coating. […] Nine concentrations of pyridaben ranging from the proposed field rate of 1480 mL diluted in 100 L of water (1998 mg a.i./L) to 1×10^−5 were serially diluted and tested along with a water control. Eight concentrations of omethoate, ranging from 10 times the field rate of 100 mL diluted in 100 L of water (290 mg a.i./L) to 1×10^−5, were tested along with a water control. Seven concentrations of bifenthrin, ranging from 10 times the field rate of 40 mL diluted in 100 L of water (100 mg a.i./L) to 1×10^−5, were tested along with a water control. For each insecticide concentration tested, approximately 10 mL of solution was poured into a 15 mL plastic vial and swirled to ensure a complete coating, with excess liquid removed. Six vials were coated per concentration and were left to dry overnight. Control vials were treated in the same way, except water (with the addition of 0.01% Tween) was used.
Approximately eight individual H. destructor were then placed into each vial along with 2-3 leaves of common vetch (Vicia sativa), which provided food and humidity. Vials were then sealed with a screw lid and placed in a controlled temperature cabinet at 18° C. After 24-hours exposure, mites were scored as alive (moving freely), incapacitated (inhibited movement), or dead (no movement over a 5 second period).
Dose-response curves were generated by plotting percentage mortality against log concentration. […] Logistic regression is well suited for the analysis of binary response data (e.g., dead/alive). All analyses were conducted using R version 3.3.1 (R Development Core Team 2022).

[4] = system: redlegged earth mite (H. destructor; RLEM); experiment: Field trial in canola, pre- or post-emergent control of RLEM (Example 5); format: in vivo, Halotydeus destructor
Protocol: A field trial was conducted in canola cv. Garrison, to evaluate fenpyroximate for control of redlegged earth mite (H. destructor; RLEM) as a pre- or post-emergent application. The trial was located at Beverley, Western Australia (−32.2248085, 117.0268493). The canola was sown on 13th June 2023. […] All treatments were applied using a hand boom fitted with flat fan nozzles in a spray volume of 100 L/ha.
The density of RLEM was assessed 33 days after the second application timing by counting the number of mites per plant.
as §1

[5] = system: couch mite (Aceria cynodoniensis); experiment: Field trial in hybrid couch turfgrass, control of couch mite (Example 7); format: in vivo
Protocol: A field trial was conducted in hybrid couch turfgrass, to evaluate fenpyroximate for control of couch mite (Aceria cynodoniensis). The trial was located at Oxley Golf Club, Oxley Queensland (−27.57077, 152.99762). […] All treatments were applied using a hand boom fitted with XR11004 nozzles and in a spray volume of 430 L/ha.
The severity of couch mite damage to the terminal growth point (known as witches' broom) was assessed pre-spraying, then at 42 and 56 days after the second application. The density of couch mite was assessed pre-spraying and at 28 days after the second application. Turf quality was assessed on a 0 to 9 rating scale (0=dead; 9=best quality/color) prior to the first application and 14 days after the second application.
as §1

[6] = 21 days after third application, product rate mL or g/ha: Meridian 1200, Kohinor 350 SC 1500, Fenpyroximate 50 SC 4000 (200 g ai/ha), each with Stamina B 20000
[7] = Pre-spray (baseline), 20 cores per plot
[8] = Halotydeus destructor, 24 h, read-out: % RLEM mortality

Cc1nn(C)c(Oc2ccccc2)c1C=NOCc1ccc(C(=O)OC(C)(C)C)cc1 [Fenpyroximate]
Turf vigor (0-10), 56 DAA3 [1]: 6.2 a | Ground pearls/plot, Adults, 21 DAA3 [2, 6]: 1.0 ab ground pearls/plot | Ground pearls/plot, Eggs, 21 DAA3 [2, 6]: 1.0 abc ground pearls/plot | Turf vigor (0-10), Pre-spray ([2]; Pre-spray (baseline), 0=dead, 10=best quality/color): 5.1 | Ground pearls/plot, Adults, Pre-spray [2, 7]: 6.7 ground pearls/plot | Ground pearls/plot, Eggs, Pre-spray [2, 7]: 4.0 ground pearls/plot | density of ground pearl eggs and adults (in words) ([2]; versus untreated, P<0.05): significantly reduced | turf vigor (in words) ([2]; versus untreated, P<0.05): significantly improved | concentrations at which mite mortality was observed ([3]; 24 hours exposure): greater than 50 mg a.i./L | mortality at 0.01 µg/mL [3, 8]: 0% | mortality at 0.1 µg/mL [3, 8]: 0% | mortality at 1 µg/mL [3, 8]: 0% | mortality at 10 µg/mL [3, 8]: 0% | mortality at 30 µg/mL [3, 8]: 0% | mortality at 50 µg/mL [3, 8]: 6% | mortality at 100 µg/mL [3, 8]: 30.5% | mortality at 300 µg/mL [3, 8]: 93.8% | mortality at 500 µg/mL [3, 8]: 100% | mortality at 1000 µg/mL [3, 8]: 98.7% | control of RLEM ([3]; concentration of 300 g a.i./L (as printed in text)): 93.8% | control of RLEM ([3]; concentration of 500 g a.i./L (as printed in text)): 100% | efficacy against RLEM (in words) ([3]; laboratory bioassay, 24 hours exposure): highly efficacious | % Control (33 DAA2) ([4]; application timing A (post-sow pre-emergent), product rate 1000 mL/ha): 67% | % Control (33 DAA2) ([4]; application timing A (post-sow pre-emergent), product rate 2000 mL/ha): 61% | % Control (33 DAA2) ([4]; application timing B (early post-emergent, 1 to 2 leaf canola), product rate 1000 mL/ha): 63% | % Control (33 DAA2) ([4]; application timing B (early post-emergent, 1 to 2 leaf canola), product rate 2000 mL/ha): 68% | Couch mites/3 terminals, 28 DAA2 ([5]; 28 DAA2, product rate mL/ha: Abazine Miticide 1350, Fenpyroximate 50 SC 2000): 45.8 mites/3 terminals | Turf quality (0-9), 14 DAA2 ([5]; 14 days after second application, 0=dead, 9=best quality/color, product rate mL/ha: Abazine Miticide 1350, Fenpyroximate 50 SC 2000): 5.1 | % Severity mite damage, 42 DAA2 ([5]; 42 days after second application, product rate mL/ha: Abazine Miticide 1350, Fenpyroximate 50 SC 2000 (100 g ai/ha)): 7.0 a % | % Severity mite damage, 56 DAA2 ([5]; 56 days after second application, product rate mL/ha: Abazine Miticide 1350, Fenpyroximate 50 SC 2000 (100 g ai/ha)): 6.5 a % | Couch mites/3 terminals, Pre-spray ([5]; Pre-spray (baseline)): 130.5 mites/3 terminals | Turf quality (0-9), Pre-spray ([5]; Pre-spray (baseline), 0=dead, 9=best quality/color): 4.5 | % Severity mite damage, Pre-spray ([5]; Pre-spray (baseline), witches' broom): 40.0% | density of couch mite (in words) ([5]; versus untreated, P<0.05): significantly both reduced | turf quality (in words) ([5]; versus untreated, P<0.05): improved
